Key:
human PAI-1 [1] = molecular target: T1, human PAI-1 (Homo sapiens, UniProt P05121); assay: PAI-1 inhibitory activity, t-PA with S-2288 chromogenic substrate (Reference Experimental Example 1); settings: system without compound after 30 minutes = 100%
Protocol: Subsequently, human-derived tissue plasminogen activator (t-PA) (manufactured by American Diagnostica, Inc. (USA); the same applies hereinafter) adjusted to 0.35 pmol/μL was added thereto, and the mixture was further incubated at 37° C. for 15 minutes.

[2] = system: cancer cell line (B16F10); assay: PD-L1 expression induced by rPAI-1 in B16F10 with STAT3 inhibitor (Experimental Example 18); assay type: cell-based, mouse; settings: simultaneous addition of rPAI-1 and STAT3 inhibitor
Protocol: In order to clarify the mechanism of induction of PD-L1 expression by PAI-1, rPAI-1 was added to a culture medium of a cancer cell line (B16F10); after culturing for 6 hours, the cells were collected, and the degree of phosphorylation of JAK/STAT molecules was analyzed.
Further, FIG. 18(B) confirmed that the increase in the PD-L1 expression induced by rPAI-1 was suppressed by simultaneous addition of rPAI-1 and a STAT3 inhibitor (BP-1-102, C188-9).

human PAI-1 [3] = molecular target: T1, human PAI-1; assay: PAI-1 inhibitory activity, t-PA with Spectrozyme t-PA chromogenic substrate (Reference Experimental Example 2); assay type: biochemical; design: purchased Molecular Innovations, Inc. (USA)
Protocol: Subsequently, human-derived tissue plasminogen activator (t-PA) (manufactured by American Diagnostica, Inc. (USA); the same applies hereinafter) adjusted to 0.05 pmol/μL was added thereto, and the mixture was further incubated at 37° C. for 60 minutes. Then, 0.25 mM of Spectrozyme t-PA synthetic substrate (manufactured by American Diagnostica, Inc. (USA); the same applies hereinafter), which is a chromogenic substrate, was added. […]
Free p-nitroaniline removed from the chromogenic substrate (Spectrozyme t-PA) by t-PA action was measured using a spectrophotometer at an absorbance of 405 nm at 20-minute intervals, for 120 minutes.

[4] = compound 10 μm (head), system without compound after 120 minutes = 100%
[5] = compound 25 μm (head), system without compound after 120 minutes = 100%
[6] = Tables 5 to 7, first value column, head prints no concentration
[7] = Tables 5 to 7, second value column, head prints no concentration

T1 sequence (P05121 24-402): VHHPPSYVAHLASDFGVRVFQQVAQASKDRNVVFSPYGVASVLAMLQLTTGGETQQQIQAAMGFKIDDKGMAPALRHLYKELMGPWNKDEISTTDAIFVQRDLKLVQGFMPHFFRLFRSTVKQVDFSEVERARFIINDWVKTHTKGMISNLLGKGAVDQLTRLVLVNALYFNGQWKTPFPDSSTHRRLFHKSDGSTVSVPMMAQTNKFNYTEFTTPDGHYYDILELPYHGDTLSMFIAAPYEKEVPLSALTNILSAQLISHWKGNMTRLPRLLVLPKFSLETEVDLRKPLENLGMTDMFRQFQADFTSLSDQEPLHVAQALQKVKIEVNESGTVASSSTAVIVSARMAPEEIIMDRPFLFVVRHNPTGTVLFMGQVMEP

Molecule | PAI-1 activity % (human PAI-1 [3]; [6]) | PAI-1 activity % (human PAI-1 [3]; [7]) | other results
O=C(CCCNC(=O)c1cccc(-c2ccoc2)c1)Nc1ccc(Cl)cc1C(=O)O [Example 1] |  |  | PAI-1 activity % (human PAI-1 [1]; compound 20 μm (head)): 95.5%; PAI-1 activity % (human PAI-1 [1]; compound 50 μm (head)): 48.9%
O=C(O)c1cc(Cl)ccc1NC(=O)C1CCCN(C(=O)Cc2cccc(-c3ccoc3)c2)C1 (stereo not drawn) [Example 12] |  |  | PAI-1 activity % (human PAI-1 [1]; compound 20 μm (head)): 57.7%; PAI-1 activity % (human PAI-1 [1]; compound 50 μm (head)): 15.7%
COc1ccc(S(=O)(=O)Nc2cc(-c3c(O)ccc4ccccc34)c(O)c3ccccc23)cc1 [Example C188-9] |  |  | increase in the PD-L1 expression induced by rPAI-1 [2]: suppressed
O=C([O-])c1cc(Cl)ccc1NC(=O)C1CCCN(C(=O)c2cccc(-c3ccoc3)c2)C1.[Na+] (stereo not drawn) [Example 11] |  |  | PAI-1 activity % (human PAI-1 [1]; compound 20 μm (head)): 68.2%; PAI-1 activity % (human PAI-1 [1]; compound 50 μm (head)): 26.1%
CC(C)(Oc1cccc(-c2ccoc2)c1)C(=O)Nc1ccc(Cl)cc1C(=O)O [Example 44, 5-chloro-2-((2-(3-(furan-3-yl)phenoxy)-2-methylpropenoyl)amino)benzoic acid] |  |  | PAI-1 activity % (human PAI-1 [3]; [4]): 20.4%; PAI-1 activity % (human PAI-1 [3]; [5]): 97.6%
O=C(Nc1ccc(Cl)cc1C(=O)O)c1ccc(C2=CCOCC2)cc1 [Example 34, 5-chloro-2-(((4-(3,6-dihyrdo-2H-pyran-4-yl)phenyl)carbonyl)amino)benzoic acid] |  |  | PAI-1 activity % (human PAI-1 [3]; [4]): 45.1%; PAI-1 activity % (human PAI-1 [3]; [5]): 97.1%
O=C(Nc1ccc(Cl)cc1C(=O)[O-])c1ccc(OCc2ccc3ccccc3n2)cc1.[Na+] [Example 100, 5-chloro-2-(((4-(quinolin-2-ylmethoxy)phenyl)carbonyl)amino)sodium benzoate] | 0.7% | 92.1% | 
O=C(Nc1ccc(Cl)cc1C(=O)O)C(=O)c1c[nH]c2ccc(OCc3ccccc3)cc12 [Example 57, 2-(((5-(benzyloxy)-1H-indol-3-yl)(oxo)acetyl)amino)-5-chlorobenzoic acid] |  |  | PAI-1 activity % (human PAI-1 [3]; [5]): 36.6%
CN(CC(=O)N(Cc1ccc(C2CCCCC2)cc1)c1ccc(C(=O)O)c(O)c1)S(=O)(=O)c1c(F)c(F)c(F)c(F)c1F [BP-1-102] |  |  | increase in the PD-L1 expression induced by rPAI-1 [2]: suppressed
5-chloro-2-((3-(3-(furan-3-yl)phenyl)propenoyl)amino)benzoic acid [Example 36] |  |  | PAI-1 activity % (human PAI-1 [3]; [4]): 3.7%; PAI-1 activity % (human PAI-1 [3]; [5]): 95.7%
Cc1ccc(C23CC4CC(CC(C(=O)Nc5ccc(Cl)cc5C(=O)O)(C4)C2)C3)cc1 [Example 86] | 1.4% | 63.5% | 
O=C(Nc1ccc(Cl)cc1C(=O)O)c1cccc(C2=CCCCC2)c1 [Example 79, 5-chloro-2-(((3-(cyclohex-1-en-1yl-)phenyl)carbonyl)amino)benzoic acid] | 1.6% | 44.5% | 
O=C(Nc1ccc(C23CC4CC(CC(C4)C2)C3)cc1)C(=O)Nc1ccc(Cl)cc1C(=O)[O-].[Na+] [Example 106, [(([4-(adamantan-1-yl)phenyl]amino)(oxo)acetyl)amino]-5-sodium chlorobenzoate] | 26.3% | 88.4% | 
C#Cc1ccc(NC(=O)c2ccc(C3CCCCC3)cc2)c(C(=O)O)c1 [Example 95, 2-(((4-cyclohexylphenyl)carbonyl)amino)-5-ethynlbenzoic acid] | 0.3% | 80.5% | 
O=C(C=Cc1ccc(C23CC4CC(CC(C4)C2)C3)cc1)Nc1ccc(Cl)cc1C(=O)O [Example 94, 2-((3-(4-(adamantan-1-yl)phenyl)prop-2-enoyl)amino)-5-chlorobenzoic acid] | 7.4% | 3.5% | 
O=C(Nc1ccc(CCC2CCCCC2)cc1C(=O)O)c1ccc(C2CCCCC2)cc1 [Example 93, 5-(2-cyclohexylethyl)2-(((4-cyclohexylphenyl)carbonyl)amino)beznoic acid] | 0.0% | 0.0% | 
O=C(COc1ccc(C2CCCCC2)cc1)Nc1ccc(Cl)cc1C(=O)O [Existing compound 3, 5-chloro-2-(((4-cyclohexylphenoxy)aceytl)amino)benzoic acid, reference compound] | 0.3% | 36.3% | 
O=C(Nc1ccc(Cl)cc1C(=O)[O-])c1cccc(OCc2ccc3ccccc3n2)c1.[Na+] [Example 99, 5-chloro-2-(((3-(quinolin-2-ylmethoxy)phenyl)carbonyl)amino)sodium benzoate] | 0.3% | 87.8% | 
